According to US20080171783A1, “COMPOSITIONS AND METHODS FOR TREATING HYPERPROLIFERATIVE DISEASE” (Migenix Inc., priority 2006, published 2008):

What was measured:
Calf polymerase alpha = molecular target: T1, Calf polymerase alpha (Bos taurus, UniProt A0AAA9TD94); test: Calf polymerase alpha inhibition (Replizyme kit); type: biochemical; details: for inhibition at 10 µM / % Inhibition: single point screening, at 10 μM; for IC50: dose response
T1 construct: purchased Replizyme Ltd (Heslington, York, UK)
T1 sequence (A0AAA9TD94 1-1441): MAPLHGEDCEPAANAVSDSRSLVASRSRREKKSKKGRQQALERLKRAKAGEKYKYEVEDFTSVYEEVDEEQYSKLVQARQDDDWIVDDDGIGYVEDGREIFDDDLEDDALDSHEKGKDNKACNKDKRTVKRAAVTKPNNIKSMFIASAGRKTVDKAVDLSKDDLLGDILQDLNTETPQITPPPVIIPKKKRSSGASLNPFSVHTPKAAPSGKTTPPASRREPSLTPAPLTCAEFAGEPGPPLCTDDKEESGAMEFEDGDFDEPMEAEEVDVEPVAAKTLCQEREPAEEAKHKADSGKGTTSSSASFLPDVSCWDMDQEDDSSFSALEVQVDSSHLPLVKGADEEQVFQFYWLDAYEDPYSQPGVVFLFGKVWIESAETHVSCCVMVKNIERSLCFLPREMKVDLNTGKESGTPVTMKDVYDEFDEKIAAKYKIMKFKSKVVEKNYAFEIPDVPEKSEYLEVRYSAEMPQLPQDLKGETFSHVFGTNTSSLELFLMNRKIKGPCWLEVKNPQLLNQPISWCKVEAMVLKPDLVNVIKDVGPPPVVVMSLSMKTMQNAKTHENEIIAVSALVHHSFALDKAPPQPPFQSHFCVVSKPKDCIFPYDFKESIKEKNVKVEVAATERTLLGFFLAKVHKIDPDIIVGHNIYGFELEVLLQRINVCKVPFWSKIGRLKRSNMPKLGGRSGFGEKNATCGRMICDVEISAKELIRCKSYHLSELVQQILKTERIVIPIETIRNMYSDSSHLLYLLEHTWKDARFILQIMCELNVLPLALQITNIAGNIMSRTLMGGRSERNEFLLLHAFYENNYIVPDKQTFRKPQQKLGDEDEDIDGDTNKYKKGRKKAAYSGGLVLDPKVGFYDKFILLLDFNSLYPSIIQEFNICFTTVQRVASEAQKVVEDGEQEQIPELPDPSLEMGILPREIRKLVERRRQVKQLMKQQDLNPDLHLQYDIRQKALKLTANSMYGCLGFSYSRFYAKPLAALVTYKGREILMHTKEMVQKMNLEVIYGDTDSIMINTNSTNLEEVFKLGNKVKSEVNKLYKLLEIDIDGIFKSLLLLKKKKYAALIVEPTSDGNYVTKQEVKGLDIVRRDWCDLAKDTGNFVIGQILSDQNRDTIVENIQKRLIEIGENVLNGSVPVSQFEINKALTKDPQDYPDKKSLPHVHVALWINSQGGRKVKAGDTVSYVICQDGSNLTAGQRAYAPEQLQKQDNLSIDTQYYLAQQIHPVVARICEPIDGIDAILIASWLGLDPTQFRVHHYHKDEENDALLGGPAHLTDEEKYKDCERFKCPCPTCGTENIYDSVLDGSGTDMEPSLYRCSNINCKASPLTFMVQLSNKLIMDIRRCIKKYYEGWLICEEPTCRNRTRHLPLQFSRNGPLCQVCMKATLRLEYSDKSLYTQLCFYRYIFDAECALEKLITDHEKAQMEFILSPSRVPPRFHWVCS
Method: Calf polymerase alpha and human polymerase alpha investigations were performed with a kit available from Replizyme Ltd (Heslington, York, UK).

[1] = system: 5 Leukemia and 5 Colon Cancer Cell Lines; test: Cell viability by XTT, cell line panel; type: cell-based; details: for Range (Percentage of Control over the same 10 cell lines) / ARF (Average Response Factor, Average Percentage of Control): 10 μM; for Range (Percentage of Control over the same 10 cell lines): lowest to highest of the ten cell lines; for viability at 10 µM / ARF (Average Response Factor, Average Percentage of Control): average of the ten Percentage of Control values; for viability at 10 µM: read-out: ARF (Average Response Factor, Average Percentage of Control)
Method: Compounds were solubilized at […] in DMSO and were stored at −20° C. Test compounds were initially tested at a single concentration of 10 μM and a subset of test compounds were further tested in selected cell lines using a six concentration dose response curve.
Cell Preparation Cancer cell lines were passaged in T-75 flasks prior to use in the assay in cell culture medium recommended by the ATCC (American Type Culture Collection; Table 6). On the day preceding the assay, the cells were split 1:2 to assure they were in an exponential growth phase at the time of compound treatment. Total cell and viability quantification was performed using a hemocytometer and Trypan Blue dye exclusion. […] The cells were resuspended at the appropriate cell per mL (Table 6) in tissue culture medium and added to the microtitre plates in a volume of 100 μL. Colon cell lines were incubated overnight at 37° C./5% CO2 to allow for cell adherence to the plates.
Plate Format: Each plate contains cell control wells (cells only), drug calorimetric control wells (drug only) as well as experimental wells (drug plus cells). Samples were tested in triplicate at a concentration of 10 μM and five half-logarithmic dilutions.
Cell Viability by XTT: Following incubation at 37° C. in a 5% CO2 incubator for four days, the test plates were stained with the tetrazolium dye XTT (2,3-bis(2-methoxy-4-nitro-5-sulfophenyl)-5-[(phenylamino)carbonyl]-2H-tetrazolium hydroxide). XTT-tetrazolium was metabolized by the mitochondrial enzymes of metabolically active cells to a soluble formazan product. XTT solution was prepared daily as a stock of 1 mg/mL in RPMI1640. Phenazine methosulfate (PMS) solution was prepared at 0.15 mg/mL in phosphate buffered saline (PBS) and stored in the dark at −20° C. XTT/PMS stock was prepared immediately before use by adding 40 μL of PMS per mL of XTT solution. Fifty (50) microlitres of XTT/PMS was added to each well of the plate and the plate was reincubated for 4 hours at 37° C. Plates were sealed with adhesive plate sealers and shaken gently or inverted several times to mix the soluble formazan product and the plate was read spectrophotometrically at 450/650 nm with a Molecular Devices Vmax plate reader. […] An Average Response Factor (ARF) was calculated for each compound by averaging the ten Percentage of Control values for the cell lines. […] Deviations below 100% control indicate activity. The concentration of each tested compound is 10 μM.

[2] = Cytotoxicity Huh-7 cells (MTS/PMS); type: cell-based; details: human, 3-day incubation
Method: Cytotoxicity of compounds for use in treating hyperproliferative diseases or disorders was tested in Huh-7 cells using tetrazolium salt MTS combined with the electron acceptor PMS in a 96-well format. Six doses of each compound was tested, starting at about 1.2 μM to 0.4 μM serially diluted in a final 1% DMSO solution in DMEM/F12 media. Terfenadine was used as a positive control. Cells were seeded at 2.5×10^5 cells/mL in each well of the 96-well plates in a final volume of 0.1 mL, and then incubated at 37° C. in the presence of 5% CO2 overnight. Compounds (in media) were added the following day and the treated cells were incubated another 3-days at 37° C. in the presence of 5% CO2. After the 3-day incubation, 20 μL of MTS/PMS (3-(4,5-dimethylthiazol-2-yl)-5-(3-carboxymethoxy-phenyl)-2-(4-sulfophenyl)-2H-tetrazolium) was added to each well. After about a one to four hour incubation of MTS/PMS at 37° C. and 5% CO2—that is, until an OD490 absorbance of ≧0.6 for the wells containing cells with media only, the level of cytotoxicity at each concentration was calculated. […] Dose response results from the cytotoxicity assay (CC50) are provided in Table 4 in comparison with IC50 data (from Table 2)

| SMILES | inhibition at 10 µM (Calf polymerase alpha) [%] | Range (Percentage of Control over the same 10 cell lines) [1] [%] | viability at 10 µM [1] [%] | % Inhibition (Calf polymerase alpha) [%] | ARF (Average Response Factor, Average Percentage of Control) [1] [%] | IC50 (Calf polymerase alpha) [µM] | CC50 at 3 days [2] [µM] |
| --- | --- | --- | --- | --- | --- | --- | --- |
| NCCCC[C@H](NC(=O)Nc1ccc(OCc2ccccc2)cc1)C(=O)Nc1cccc2c1CCC2 [Compound 321, (S)-6-AMINO-2-[3-(4-BENZYLOXY-PHENYL)-UREIDO]-HEXANOIC ACID INDAN-4-YLAMIDE] | 101 | 55.9 to 109.3 | 88 |  |  |  |  |
| Cc1ccc(NC(=O)C[C@H](CCCCN)NC(=O)Nc2ccc3c(c2)Cc2ccccc2-3)cc1 [Compound 247, (S)-7-AMINO-3-[3-(9H-FLUOREN-2-YL)-UREIDO]-HEPTANOIC ACID P-TOLYLAMIDE] |  | 28.5 to 104.3 |  | 87 | 85.6 |  |  |
| NCc1ccc(NC(=O)[C@@H](NC(=O)Nc2ccc(OCc3ccccc3)cc2)c2ccccc2)cc1 [Compound 305, (S)—N-(4-AMINOMETHYL-PHENYL)-2-[3-(4-BENZYLOXY-PHENYL)-UREIDO]-2-PHENYL-ACETAMIDE] | 104 | 30.9 to 105.9 | 79.5 |  |  |  |  |
| NCCCCN(CC(=O)Nc1ccc(C2CCCCC2)cc1)C(=O)Nc1ccc(C=Cc2ccccc2)cc1 [Compound 324, 2-[1-(4-AMINO-BUTYL)-3-(4-STYRYL-PHENYL)-UREIDO]-N-(4-CYCLOHEXYL-PHENYL)-ACETAMIDE] | 92.5 | 69.3 to 109.9 | 95.8 |  |  |  |  |
| Cc1ccc(NC(=O)[C@H](CCCCN)NS(=O)(=O)c2ccc(-c3ccccc3)cc2)cc1 [Compound 70, (S)-6-AMINO-2-(BIPHENYL-4-SULFONYLAMINO)-HEXANOIC ACID P-TOLYLAMIDE] |  | 61.1 to 115.5 |  | 50 | 94.5 |  |  |
| NCCCC[C@H](NC(=O)OCC1c2ccccc2-c2ccccc21)C(=O)Nc1ccc2c(c1)CCC2 [Compound 81, (S)-[5-AMINO-1-(INDAN-5-YLCARBAMOYL)-PENTYL]-CARBAMIC ACID 9H-FLUOREN-9-YLMETHYL ESTER] | 101 | 61.3 to 116.5 | 94.2 |  |  |  |  |
| Cc1ccc(NC(=O)[C@H](CCCCN)NC(=O)CNc2ccc(Oc3ccccc3)cc2)cc1 [Compound 368, (S)-6-AMINO-2-[2-(4-PHENOXY-PHENYLAMINO)-ACETYLAMINO]-HEXANOIC ACID P-TOLYLAMIDE] |  |  |  |  |  | 6 | 58 |
| Cc1ccc(NC(=O)[C@@H](CCCCN)NC(=O)Nc2ccc(OCc3ccccc3)cc2)cc1 [Compound 172, (R)-6-AMINO-2-[3-(4-BENZYLOXY-PHENYL)-UREIDO]-HEXANOIC ACID P-TOLYLAMIDE] | 60 |  |  |  |  | 7.3 | 26 |
| Cc1ccc(NC(=O)[C@H](CCCCN)NC(=O)Nc2cccc(Oc3ccccc3)c2)cc1 [Compound 98, (S)-6-AMINO-2-[3-(3-PHENOXY-PHENYL)-UREIDO]-HEXANOIC ACID P-TOLYLAMIDE] |  | 53.8 to 126.6 |  | 89 | 90.8 |  |  |
| Cc1ccc(NC(=O)[C@H](CCCN)NC(=O)Nc2ccc(OCc3ccccc3)cc2)cc1 [Compound 189, (S)-5-AMINO-2-[3-(4-BENZYLOXY-PHENYL)-UREIDO]-PENTANOIC ACID P-TOLYLAMIDE] |  | 66.6 to 107.6 |  | 76 | 89.0 |  |  |
| NCCCC[C@H](NC(=O)OCC1c2ccccc2-c2ccccc21)C(=O)Nc1ccc(CN)cc1 [Compound 228, (S)-[5-AMINO-1-(4-AMINOMETHYL-PHENYLCARBAMOYL)-PENTYL]-CARBAMIC ACID 9H-FLUOREN-9-YLMETHYL ESTER] |  |  |  |  |  | 5.5 | 36.7 |
| CC1CCC(NC(=O)[C@H](CCCCN)NC(=O)Nc2ccc(OCc3ccccc3)cc2)CC1 (stereo partly drawn) [Compound 264, (S)-6-AMINO-2-[3-(4-BENZYLOXY-PHENYL)-UREIDO]-HEXANOIC ACID (4-METHYL-CYCLOHEXYL)-AMIDE] | 41 |  |  | 35 |  | 16 | 26.6 |
| NCCCCC[C@H](NC(=O)NCc1ccccc1)C(=O)Nc1ccc(C2CCCCC2)cc1 [Compound 120, (S)-7-AMINO-2-(3-BENZYL-UREIDO)-HEPTANOIC ACID (4-CYCLOHEXYL-PHENYL)-AMIDE] | 100 | 40.4 to 117.1 | 88.4 |  |  |  |  |
